The target of one experiment is human CB2 receptors (Homo sapiens (Human), UniProt P34972). Description: functional cAMP assay, CHO cells expressing human CB2 receptors. It is filed as cell-based. The procedure, abridged:
(§1)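 Cells are seeded 17-24 h ahead, then preincubated in Krebs Ringer bicarbonate buffer with 1 mM IBMX at 30 °C. Compounds act for 30 min at 30 °C, after which lysis and cAMP detection reagents are added for 2 h at room temperature. Time-resolved FRET gives cAMP content, and EC50 values are fitted from it.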
On the technique in general: cAMP levels reflect the balance of adenylyl cyclase and phosphodiesterase activity.

In another experiment the target is human CB1 receptors (Homo sapiens (Human), UniProt P21554). Description: functional cAMP assay, CHO cells expressing human CB1 receptors. It counts as cell-based. The procedure, abridged:
as §1

Each structure is given as a SMILES string.

human CB1 receptors, sequence (P21554 whole entry): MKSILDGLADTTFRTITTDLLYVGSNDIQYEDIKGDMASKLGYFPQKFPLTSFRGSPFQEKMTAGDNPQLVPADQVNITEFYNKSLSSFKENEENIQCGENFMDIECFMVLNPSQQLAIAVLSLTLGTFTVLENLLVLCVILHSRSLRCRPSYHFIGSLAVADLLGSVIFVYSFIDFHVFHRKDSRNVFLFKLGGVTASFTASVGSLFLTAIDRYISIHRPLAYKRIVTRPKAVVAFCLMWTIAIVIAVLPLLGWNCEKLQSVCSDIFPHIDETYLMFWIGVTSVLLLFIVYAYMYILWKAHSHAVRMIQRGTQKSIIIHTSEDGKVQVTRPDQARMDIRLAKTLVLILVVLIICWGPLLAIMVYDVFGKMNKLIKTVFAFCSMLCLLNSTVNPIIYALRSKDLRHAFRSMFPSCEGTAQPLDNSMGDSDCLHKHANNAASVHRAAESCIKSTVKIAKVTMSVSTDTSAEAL
human CB2 receptors, sequence (P34972 whole entry): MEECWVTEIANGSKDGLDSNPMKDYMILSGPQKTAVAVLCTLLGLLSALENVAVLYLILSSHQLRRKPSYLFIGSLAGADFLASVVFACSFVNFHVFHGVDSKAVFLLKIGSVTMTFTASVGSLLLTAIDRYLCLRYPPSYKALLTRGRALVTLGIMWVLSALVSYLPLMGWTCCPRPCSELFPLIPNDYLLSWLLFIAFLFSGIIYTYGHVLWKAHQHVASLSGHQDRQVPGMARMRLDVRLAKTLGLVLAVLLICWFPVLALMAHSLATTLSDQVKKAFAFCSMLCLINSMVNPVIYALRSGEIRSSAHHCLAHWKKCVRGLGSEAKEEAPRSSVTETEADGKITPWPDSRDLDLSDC

For `O=C(c1ccc(N2CC(F)(F)C2)c(OCC2CC2)n1)N1CC(F)(F)C1` [Example 102, [6-Cyclopropylmethoxy-5-(3,3-difluoro-azetidin-1-yl)-pyridin-2-yl]-(3,3-difluoro-azetidin-1-yl)-methanone], the EC50 is 181 nM on human CB2 receptors and above 10 µM at human CB1 receptors.

For the compound `O=C(c1ccc(N2CC(F)(F)C2)c(OCC2CC2)n1)N1CCC2(CC2)C1` [Example 104, (5-Aza-spiro[2.4]hept-5-yl)-[6-cyclopropylmethoxy-5-(3,3-difluoro-azetidin-1-yl)-pyridin-2-yl]-methanone], the figures for the EC50 on human CB2 receptors and on human CB1 receptors were 7.4 nM and above 10 µM, respectively.

Turning to `CN(CC1CC1)C(=O)c1ccc(N2CC(F)(F)C2)c(OCC2CC2)n1` [Example 105, 6-Cyclopropylmethoxy-5-(3,3-difluoro-azetidin-1-yl)-pyridine-2-carboxylic acid cyclopropylmethyl-methyl-amide], the values for the EC50 on human CB2 receptors and on human CB1 receptors were 218 nM and above 10 µM, respectively.

Consider `O=C(c1ccc(N2CC(F)(F)C2)c(OCC2CC2)n1)N1CCN(CC2CC2)CC1` [Example 106, [6-Cyclopropylmethoxy-5-(3,3-difluoro-azetidin-1-yl)-pyridin-2-yl]-(4-cyclopropylmethyl-piperazin-1-yl)-methanone], for which the concentration for a half-maximal effect (EC50) at human CB2 receptors is 123 nM; on human CB1 receptors, above 10 µM.

In the case of `CCOC(=O)C1C2CN(C(=O)c3ccc(N4CC(F)(F)C4)c(OCC4CC4)n3)CC21` (centres unmarked) [Example 107, 3-[6-Cyclopropylmethoxy-5-(3,3-difluoro-azetidin-1-yl)-pyridine-2-carbonyl]-3-aza-bicyclo[3.1.0]hexane-6-carboxylic acid ethyl ester], the EC50 was 757 nM at human CB2 receptors and above 10 µM on human CB1 receptors.

Consider `COC(=O)C1CCCN1C(=O)c1ccc(N2CC(F)(F)C2)c(OCC2CC2)n1` (centres unmarked) [Example 108, 1-[6-Cyclopropylmethoxy-5-(3,3-difluoro-azetidin-1-yl)-pyridine-2-carbonyl]-pyrrolidine-2-carboxylic acid methyl ester], for which the EC50 is 156 nM at human CB2 receptors and above 10 µM at human CB1 receptors.

`O=C(OCc1ccccc1)N1CCN(C(=O)c2ccc(N3CC(F)(F)C3)c(OCC3CC3)n2)CC1` [Example 109, 4-[6-Cyclopropylmethoxy-5-(3,3-difluoro-azetidin-1-yl)-pyridine-2-carbonyl]-piperazine-1-carboxylic acid benzyl ester]: the results for the EC50 on human CB2 receptors and on human CB1 receptors were 360 nM and above 10 µM, respectively.

Consider `O=C(O)C1C2CN(C(=O)c3ccc(N4CC(F)(F)C4)c(OCC4CC4)n3)CC21` (centres unmarked) [Example 110, 3-[6-Cyclopropylmethoxy-5-(3,3-difluoro-azetidin-1-yl)-pyridine-2-carbonyl]-3-aza-bicyclo[3.1.0]hexane-6-carboxylic acid], for which the figures for the EC50 at human CB2 receptors and on human CB1 receptors were 386 nM and above 10 µM, respectively.

Take `CC(C)(C)OC(=O)N1CCC2(CCCN2C(=O)c2ccc(C3CC3)c(Cc3ccc(F)cc3)n2)CC1` [Example 111, 1-[5-Cyclopropyl-6-(4-fluoro-benzyl)-pyridine-2-carbonyl]-1,8-diaza-spiro[4.5]decane-8-carboxylic acid tert-butyl ester]: the results for the EC50 at human CB2 receptors and at human CB1 receptors were 8 nM and 2.78 µM, respectively.

In the case of `NC(=O)[C@@H]1CSCN1C(=O)c1ccc(N2CC(F)(F)C2)c(OCC2CC2)n1` [Example 112, (−)-3-[6-Cyclopropylmethoxy-5-(3,3-difluoro-azetidin-1-yl)-pyridine-2-carbonyl]-thiazolidine-4-carboxylic acid amide], the EC50 was 19.8 nM on human CB2 receptors and above 10 µM on human CB1 receptors.

Regarding `O=C(c1ccc(C2CC2)c(Cc2ccc(F)cc2)n1)N1CCCC12CCNCC2` [Example 113, [5-Cyclopropyl-6-(4-fluoro-benzyl)-pyridin-2-yl]-(1,8-diaza-spiro[4.5]dec-1-yl)-methanone], the EC50 at human CB2 receptors was 212 nM; at human CB1 receptors, above 10 µM.

As to `NC(=O)C1CCCN1C(=O)c1ccc(N2CC(F)(F)C2)c(OCC2CC2)n1` (centres unmarked) [Example 114, 1-[6-Cyclopropylmethoxy-5-(3,3-difluoro-azetidin-1-yl)-pyridine-2-carbonyl]-pyrrolidine-2-carboxylic acid amide], the results for the EC50 on human CB2 receptors and at human CB1 receptors were 473 nM and above 10 µM, respectively.

For `NC(=O)[C@@H]1CS(=O)(=O)CN1C(=O)c1ccc(C2CC2)c(OCC2CC2)n1` [Example 115, (−)-3-(5-Cyclopropyl-6-cyclopropylmethoxy-pyridine-2-carbonyl)-1,1-dioxo-1λ^6-thiazolidine-4-carboxylic acid amide], the concentration giving a half-maximal response (EC50) is 7.2 nM at human CB2 receptors and above 10 µM at human CB1 receptors.

For the compound `NC(=O)[C@H]1CS(=O)(=O)CN1C(=O)c1ccc(C2CC2)c(OCC2CC2)n1` [Example 117, (+)-3-(5-Cyclopropyl-6-cyclopropylmethoxy-pyridine-2-carbonyl)-1,1-dioxo-1λ^6-thiazolidine-4-carboxylic acid amide], the EC50 on human CB2 receptors is 485 nM; on human CB1 receptors it was above 10 µM.

Take `O=C(c1ccc(N2CC(F)(F)C2)c(OCC2CC2)n1)N1CC(F)(F)C(F)(F)C1` [Example 118, [6-Cyclopropylmethoxy-5-(3,3-difluoro-azetidin-1-yl)-pyridin-2-yl]-(3,3,4,4-tetrafluoro-pyrrolidin-1-yl)-methanone]: the EC50 is 13.2 nM on human CB2 receptors and above 10 µM on human CB1 receptors.

On to `CC1CN(C(=O)c2ccc(N3CC(F)(F)C3)c(OCC3CC3)n2)CC(C)O1` (centres unmarked) [Example 119, [6-Cyclopropylmethoxy-5-(3,3-difluoro-azetidin-1-yl)-pyridin-2-yl]-(2,6-dimethyl-morpholin-4-yl)-methanone], for which the values for the EC50 on human CB2 receptors and on human CB1 receptors were 599 nM and above 10 µM, respectively.

For `CC1(C)SCN(C(=O)c2ccc(N3CC(F)(F)C3)c(OCC3CC3)n2)[C@@H]1C(N)=O` [Example 120, (R)-3-[6-Cyclopropylmethoxy-5-(3,3-difluoro-azetidin-1-yl)-pyridine-2-carbonyl]-5,5-dimethyl-thiazolidine-4-carboxylic acid amide], the concentration giving a half-maximal response (EC50) was 42 nM at human CB2 receptors and above 10 µM at human CB1 receptors.

Regarding `CC1(C)CC[C@@H](C(N)=O)N1C(=O)c1ccc(N2CC(F)(F)C2)c(OCC2CC2)n1` [Example 121, (S)-1-[6-Cyclopropylmethoxy-5-(3,3-difluoro-azetidin-1-yl)-pyridine-2-carbonyl]-5,5-dimethyl-pyrrolidine-2-carboxylic acid amide], the EC50 is 112 nM on human CB2 receptors and above 10 µM on human CB1 receptors.

Consider `NC(=O)C1CSCN1C(=O)c1ccc(N2CC(F)(F)C2)c(OCC2CC2)n1` (centres unmarked) [Example 122, 3-[6-Cyclopropylmethoxy-5-(3,3-difluoro-azetidin-1-yl)-pyridine-2-carbonyl]-thiazolidine-4-carboxylic acid amide], for which the EC50 is 50 nM at human CB2 receptors and above 10 µM at human CB1 receptors.

For the compound `NC(=O)[C@@H]1C[C@@H](F)CN1C(=O)c1ccc(C2CC2)c(OCC2CC2)n1` [Example 123, (2S,4R)-1-[5-Cyclopropyl-6-(cyclopropylmethoxy)pyridine-2-carbonyl]-4-fluoropyrrolidine-2-carboxamide], the EC50 was 58.4 nM at human CB2 receptors and above 10 µM on human CB1 receptors.

`NC(=O)C1C[S+]([O-])CN1C(=O)c1ccc(N2CC(F)(F)C2)c(OCC2CC2)n1` (centres unmarked) [Example 124, 3-[6-(Cyclopropylmethoxy)-5-(3,3-difluoroazetidin-1-yl)pyridine-2-carbonyl]-1-oxo-1,3-thiazolidine-4-carboxamide]: the figures for the EC50 at human CB2 receptors and at human CB1 receptors were 52.6 nM and above 10 µM, respectively.

For `NC(=O)C1CS(=O)(=O)CN1C(=O)c1ccc(N2CC(F)(F)C2)c(OCC2CC2)n1` (centres unmarked) [Example 125, 3-[6-(Cyclopropylmethoxy)-5-(3,3-difluoroazetidin-1-yl)pyridine-2-carbonyl]-1,1-dioxo-1,3-thiazolidine-4-carboxamide], the EC50 was 9.5 nM on human CB2 receptors and above 10 µM at human CB1 receptors.

Take `NC(=O)[C@@H]1C[C@@H](F)CN1C(=O)c1ccc(N2CC(F)(F)C2)c(OCC2CC2)n1` [Example 126, (2S,4R)-1-[6-(Cyclopropylmethoxy)-5-(3,3-difluoroazetidin-1-yl)pyridine-2-carbonyl]-4-fluoropyrrolidine-2-carboxamide]: the EC50 was 40 nM at human CB2 receptors and above 10 µM on human CB1 receptors.

Turning to `NC(=O)[C@@H]1CS(=O)(=O)CN1C(=O)c1ccc(N2CC(F)(F)C2)c(OCC2CC2)n1` [Example 127, (−)-3-[6-(Cyclopropylmethoxy)-5-(3,3-difluoroazetidin-1-yl)pyridine-2-carbonyl]-1,1-dioxo-1,3-thiazolidine-4-carboxamide], the EC50 on human CB2 receptors is 3.4 nM; on human CB1 receptors, above 10 µM.

Regarding `COC1CN(c2ccc(C(=O)N3CS(=O)(=O)CC3C(N)=O)nc2OCC2CC2)C1` (centres unmarked) [Example 128, 3-[6-(Cyclopropylmethoxy)-5-(3-methoxyazetidin-1-yl)pyridine-2-carbonyl]-1,1-dioxo-1,3-thiazolidine-4-carboxamide], the EC50 on human CB2 receptors was 30.2 nM; at human CB1 receptors it was above 10 µM.

As to `NC(=O)[C@@H]1CC(F)(F)CN1C(=O)c1ccc(C2(O)CCC2)c(OCC2CC2)n1` [Example 129, (2S)-1-[6-(Cyclopropylmethoxy)-5-(1-hydroxycyclobutyl)pyridine-2-carbonyl]-4,4-difluoropyrrolidine-2-carboxamide], the EC50 at human CB2 receptors is 75.8 nM; on human CB1 receptors, above 10 µM.

For `NC(=O)[C@@H]1CC(F)(F)CN1C(=O)c1ccc(C2(F)CCC2)c(OCC2CC2)n1` [Example 130, (2S)-1-[6-(Cyclopropylmethoxy)-5-(1-fluorocyclobutyl)pyridine-2-carbonyl]-4,4-difluoropyrrolidine-2-carboxamide], the results for the EC50 on human CB2 receptors and on human CB1 receptors were 2.3 nM and above 10 µM, respectively.

For `NC(=O)C1CS(=O)(=O)CN1C(=O)c1ccc(C2(O)CCC2)c(OCC2CC2)n1` (centres unmarked) [Example 131, 3-[6-(Cyclopropylmethoxy)-5-(1-hydroxycyclobutyl)pyridine-2-carbonyl]-1,1-dioxo-1,3-thiazolidine-4-carboxamide], the EC50 at human CB2 receptors is 62.5 nM; at human CB1 receptors, above 10 µM.

By EC50 is commonly meant the concentration giving half of the maximal effect.

(Values after patent publication US9303012B2, “Pyridine-2-amides useful as CB2 agonists” (Hoffmann-La Roche Inc., priority 2012, dated 2016).)
